Measurements as given in patent publication US8476292B2, “Amide and carbamate derivatives of N-{2-[4-amino-2-(ethoxymethyl)-1H-imidazo[4,5-c] quinolin-1-Yl]-1,1-dimethylethyl}methanesulfonamide and methods” (3M Innovative Properties Company, priority 2005, dated 2013).

Compound | melting point
CCOCc1nc2c(NC(C)=O)nc3ccccc3c2n1CC(C)(C)NS(C)(=O)=O [Example 1, N-(2-Ethoxymethyl-1-{2-methyl-2-[(methylsulfonyl)amino]propyl}-1H-imidazo[4,5-c]quinolin-4-yl)acetamide] | 75 to 76 °C
CCOCc1nc2c(NC(=O)C(C)C)nc3ccccc3c2n1CC(C)(C)NS(C)(=O)=O [Example 3] | 67 to 70 °C
CCOCc1nc2c(NC(=O)c3ccccc3)nc3ccccc3c2n1CC(C)(C)NS(C)(=O)=O [Example 2, N-(2-Ethoxymethyl-1-{2-methyl-2-[(methylsulfonyl)amino]propyl}-1H-imidazo[4,5-c]quinolin-4-yl)benzamide] | 80 to 83 °C

The remaining lines, values ahead:

melting point | Compound
125 to 127 °C | CCCCOC(=O)Nc1nc2ccccc2c2c1nc(COCC)n2CC(C)(C)NS(C)(=O)=O [Example 7, Butyl 2-Ethoxymethyl-1-{2-methyl-2-[(methylsulfonyl)amino]propyl}-1H-imidazo[4,5-c]quinolin-4-ylcarbamate]
163 to 165 °C | CCOCc1nc2c(NC(=O)OCC)nc3ccccc3c2n1CC(C)(C)NS(C)(=O)=O [Example 5, Ethyl 2-Ethoxymethyl-1-{2-methyl-2-[(methylsulfonyl)amino]propyl}-1H-imidazo[4,5-c]quinolin-4-ylcarbamate]
177 to 179 °C | CCCOC(=O)Nc1nc2ccccc2c2c1nc(COCC)n2CC(C)(C)NS(C)(=O)=O [Example 6, Propyl 2-Ethoxymethyl-1-{2-methyl-2-[(methylsulfonyl)amino]propyl}-1H-imidazo[4,5-c]quinolin-4-ylcarbamate]
